Results reported in patent US11959083B2, “Immunosuppression-reverting oligonucleotides inhibiting the expression of CD39” (Secarna Pharmaceuticals GmbH & Co. KG, priority 2016, dated 2024).
l = locked nucleic acid (LNA); d = 2'-deoxy (DNA)

Assays:
human CD8+ T cells = experiment: Proliferation and absolute cell numbers of human CD8+ T cells in presence or absence of extracellular ATP; format: cell-based; details: 5 μM oligonucleotide 5 days or 20 μM ARL67156 24 h
Protocol: FIG. 12A-12C depict human CD8^+ T cells which were labelled with cell proliferation dye, activated with anti-CD3 and treated with 5 μM of the antisense oligonucleotide A04040H (black column) or the control oligonucleotide S6 (white column) for a total treatment time of 5 days. In the vehicle control (striped column), cells were activated with anti-CD3 only. Subsequently, 400 μM of ATP or vehicle were added to cells on day 3 and day 4 after start of oligonucleotide treatment. Furthermore, as additional control, the small molecular CD39-inhibitor ARL67156 trisodium salt was added at 20 μM to cells on day 4, for an incubation time of 24 h (checked column). On day 5 after start of oligonucleotide treatment, (FIG. 12A) CD39 protein expression, (FIG. 12B) proliferation and (FIG. 12C) absolute cell numbers of CD8^+ T cells were analyzed using Flow Cytometry. Depicted is the mean of triplicate wells+/−SD.
In cancer, ATP is released from tumor cells for example after cell death induced by chemotherapy or radiation therapy. Since the CD39-CD73 axis plays an important role for T cell function the effects of A04040H on T cell proliferation in the presence or absence of extracellular ATP were investigated. Human CD8^+ T cells were labelled with cell proliferation dye, activated with anti-CD3 and treated with 5 μM of the antisense oligonucleotide A04040H or the control oligonucleotide S6 for a total treatment time of 5 days. In the vehicle control, cells were activated with anti-CD3 only. Subsequently, 400 μM of ATP or vehicle were added to cells on day 3 and day 4 after start of oligonucleotide treatment. Furthermore, as additional control, the small molecular CD39-inhibitor ARL67156 trisodium salt was added at 20 μM to cells on day 4 for an incubation time of 24 h. On day 5 after start of oligonucleotide treatment, CD39 protein expression, proliferation, and absolute cell numbers of CD8^+ T cells were analyzed using Flow Cytometry.

hCD39 = molecular target: T1, hCD39 (Homo sapiens, UniProt P49961); experiment: ATP degradation in JIYOYE cells after hCD39 knockdown (ATP Bioluminescence Assay); format: cell-based; details: 5 μM oligonucleotide 6 days or 20 μM ARL67156 1 h; 2 μM ATP added
T1 construct: endogenous in cells; host or cells: JIYOYE cells
T1 sequence (P49961 1-510): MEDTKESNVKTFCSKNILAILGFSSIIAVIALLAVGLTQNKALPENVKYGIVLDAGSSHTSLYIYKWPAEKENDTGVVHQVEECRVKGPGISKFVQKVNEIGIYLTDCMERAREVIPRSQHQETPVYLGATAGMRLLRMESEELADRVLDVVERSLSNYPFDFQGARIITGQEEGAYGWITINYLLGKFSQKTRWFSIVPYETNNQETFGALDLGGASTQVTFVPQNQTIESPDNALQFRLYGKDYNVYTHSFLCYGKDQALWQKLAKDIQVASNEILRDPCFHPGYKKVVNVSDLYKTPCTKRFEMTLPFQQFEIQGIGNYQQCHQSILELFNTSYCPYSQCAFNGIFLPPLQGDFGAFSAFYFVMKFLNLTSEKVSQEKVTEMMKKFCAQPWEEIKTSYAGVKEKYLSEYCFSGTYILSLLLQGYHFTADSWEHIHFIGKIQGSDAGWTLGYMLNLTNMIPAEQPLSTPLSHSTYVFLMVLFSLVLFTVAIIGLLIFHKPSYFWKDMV
Protocol: FIG. 10A-10C depict effects of hCD39 knockdown on viability and ATP concentration in JIYOYE cells. JIYOYE cells were treated with the indicated antisense oligonucleotide A04040H (SEQ ID No.3) or neg1 for 6 days in total at 5 μM. Medium was replaced with fresh oligonucleotide-containing medium after 3 days and hCD39 protein knockdown efficacy was analyzed on day 6 by flow cytometry. Residual hCD39 expression and viability of oligonucleotide-treated cells is depicted compared to untreated cells (FIG. 10A-10B). After 6 days, 20 μM of the CD39 small molecular inhibitor ARL67156 trisodium salt was added to no ASO treated cells and incubated for 1 h at 37° C. Then, 2 μM of ATP was added to cells or cell culture medium without cells from each condition and ATP concentration of cell supernatants or cell culture medium was determined after 30 min using the ATP Bioluminescence Assay Kit (Roche) (FIG. 10C).
Adenosine is one major immunosuppressive molecule generated during ATP degradation by hCD39. ATP can be detected by an ATP Bioluminescence Assay (ATP Bioluminescence Assay Kit CLS II; Roche). JIYOYE cells were treated with 5 μM antisense oligonucleotide A04040H (SEQ ID No. 3) or the negative control oligonucleotide neg1 for 6 days (3+3). After 3 days, RPMI-1640 medium was replaced with fresh RPMI-1640 medium containing 5 μM of oligonucleotide. Protein knockdown efficacy (FIG. 10A) and viability (FIG. 10B) were analyzed after 6 days by flow cytometry. […] The same day, cells that were not treated with any antisense oligonucleotide were incubated for 1 hr at 37° C. with 20 μM of the CD39 small molecular inhibitor ARL67156 trisodium salt (TOCRIS). Then, 2 μM of ATP was added to cells or cell culture medium without cells derived from each condition and ATP concentration was measured in the cell supernatants or in cell culture medium after 30 min. […] Table 14 presents the effect of hCD39 knockdown on relative ATP levels in the cell culture supernatants of JIYOYE cells: […]

mCD39 mRNA [1] = experiment: mCD39 mRNA knockdown efficacy screen in A20 cells (single dose, gymnotic delivery, QuantiGene Singleplex); format: cell-based, mouse; details: 10 μM, three days, normalized to HPRT1
Protocol: FIG. 14-1 and 14-2 show mCD39 mRNA knockdown efficacy of mCD39 antisense oligonucleotides in the murine cancer cell line A20 (mouse B cell lymphoma). A20 cells were treated with a single dose of 10 μM of the respective antisense oligonucleotide. As negative control, cells were treated with neg1, an antisense oligonucleotide having the sequence CGTTTAGGCTATGTACTT (SEQ ID NO:99). Residual mCD39 mRNA expression relative to untreated cells is depicted. Expression values were normalized to expression of the housekeeping gene HPRT1.
In order to analyze the efficacy of mCD39 antisense oligonucleotides with regard to the knockdown of mCD39 mRNA expression in a cancer cell line, A20 (mouse B cell lymphoma, ATCC) cells were treated with a single dose (concentration: 10 μM without addition of any transfection reagent; this process is called gymnotic delivery) of the respective antisense oligonucleotide as indicated in FIG. 14. As control, cells were treated with neg1, an antisense oligonucleotide having the sequence CGTTTAGGCTATGTACTT (SEQ ID NO:99). mCD39 and HPRT1 mRNA expression was analyzed after three days using the QuantiGene Singleplex assay (Affymetrix) and mCD39 expression values were normalized to HPRT1 expression values.

mCD39 protein = experiment: In vivo mCD39 protein knockdown in tumor-infiltrating immune cells, syngeneic MC38 mouse tumor model; details: MC38 tumor-bearing C57BL/6 mice, 20, 10, 5 mg/kg subcutaneous, day 16, compared to the controls
Protocol: FIGS. 16A and 16B show CD39 protein expression on tumor infiltrating regulatory T cells (Tregs) (FIG. 16A) and tumor associated macrophages (TAMs) (FIG. 16B) from oligonucleotide-treated mice in relation to tumors of untreated mice.
The potent mCD39 antisense oligonucleotide A04011MR was selected and its in vivo knockdown capacity in a subcutaneous syngeneic murine tumor model was analyzed. Therefore, 5×10^5 MC38 wt tumor cells were injected subcutaneously into C57BL/6 mice. Once tumors reached sizes between 50-70 mm^3, mice were treated systemically by subcutaneous injections with different doses of A04011MR (20 mg/kg; 10 mg/kg; 5 mg/kg) or with the negative control oligonucleotide neg1 (20 mg/kg) on days 1, 2, 3, 4, 5, 9, and 12 (4 mice/per group). As additional control, MC-38 tumor-bearing mice were left untreated. Four days after the last treatment with antisense oligonucleotide (day 16), tumors were isolated in order to analyze CD39 protein expression in subtypes of tumor-infiltrating immune cells using flow cytometry. FIGS. 16A and 16B depict CD39 protein expression on tumor-infiltrating regulatory T cells (Tregs) (FIG. 16A) and tumor associated macrophages (TAMs) (FIG. 16B) from oligonucleotide-treated mice in relation to tumors of untreated mice.

mCD39 mRNA [2] = experiment: In vivo mCD39 mRNA knockdown in spleens of C57BL/6 mice; parameters: species or system mouse; details: day 26, compared to neg 1 treated mice
Protocol: FIGS. 15A and 15B depict CD39 mRNA expression levels in spleens from C57BL/6 mice treated by subcutaneous injections of either A04011MR or the negative control oligonucleotide neg1 at doses of 25 mg/kg or 10 mg/kg on days 1, 2, 3, 4, 5, 9, 12, 16, and 19 (5 mice/group). Expression values were normalized to expression values of the housekeeping gene HPRT1.
The potent mCD39 ASO A04011MR was selected and its in vivo knockdown capacity in C57BL/6 mice was analyzed. C57BL/6 mice were treated by subcutaneous injections of either A04011MR or the negative control oligonucleotide neg1 at doses of 25 mg/kg or 10 mg/kg on days 1, 2, 3, 4, 5, 9, 12, 16, and 19 (5 mice/group). Seven days after the last ASO treatment (day 26), mice were sacrificed and spleens were sampled for CD39 mRNA analysis. The results depicted in FIG. 15 show CD39 mRNA expression levels in spleens of A04011MR or neg1-treated mice.

hCD39 protein = hCD39 protein expression in primary human CD8+ and CD4+ T cells after oligonucleotide removal (flow cytometry); format: cell-based; details: 10 μM for six days with anti-CD3, compared to untreated control cells
Protocol: Thereafter, oligonucleotides and anti-CD3 were removed and hCD39 protein expression was analyzed by flow cytometry three, six, and eleven days after oligonucleotide removal. CD39 protein expression is depicted as mean fluorescence intensity (MFI) and was calculated by subtracting the MFI of the unspecific isotype control from the MFI of CD39. Depicted is the mean of duplicate wells+/−SD.
A04040H had shown very potent activity in suppressing hCD39 expression on mRNA- and protein-level in human cancer cell lines. In the next step, its activity in primary human T cells was investigated. Furthermore, the persistence of the effects after antisense oligonucleotide removal was examined. Therefore, CD8^+ and CD4^+ T cells were isolated from peripheral blood and activated for a total treatment time of six days with anti-CD3 in the presence of 10 μM of the hCD39 specific antisense oligonucleotide A04040H (black column) or the control oligonucleotide S6 (white column), which is not complementary to any human mRNA. […] Thereafter, oligonucleotides were removed and hCD39 protein expression was analyzed three, six, and eleven days after oligonucleotide removal by flow cytometry (FIG. 9).

hCD39 mRNA [3] = experiment: hCD39 mRNA knockdown efficacy screen in A-172 cells (single dose, gymnotic delivery, QuantiGene Singleplex); format: cell-based, human; details: 10 μM, 3 days, third screening round
In short: (§1)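 Antisense oligonucleotides given once at 10 μM without transfection reagent (gymnotic) to HDLM-2 or A-172 cells for 3 days. hCD39 mRNA measured by QuantiGene Singleplex, normalized to HPRT1 and expressed relative to untreated cells; triplicate means.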

hCD39 mRNA [4] = experiment: hCD39 mRNA knockdown efficacy screen in HDLM-2 cells (single dose, gymnotic delivery, QuantiGene Singleplex); format: cell-based, human; details: 10 μM, 3 days, third screening round
In short: as §1

[5] = absence of extracellular ATP, vs vehicle
[6] = supplementation with 400 μM of ATP

CCN(CC)c1ncnc2c1ncn2[C@@H]1O[C@H](COP(=O)(O)OP(=O)(O)C(Br)(Br)P(=O)(O)O)[C@@H](O)[C@H]1O [ARL67156]
absolute cell numbers of CD8+ T cells (human CD8+ T cells; [5]): no differences | proliferation of CD8+ T cells (human CD8+ T cells; [5]): no differences | absolute numbers of CD8+ T cells (human CD8+ T cells; [6]): significantly diminished | proliferation of CD8+ T cells (human CD8+ T cells; [6]): reduced proliferation | Relative ATP levels in supernatants of JIYOYE cells 30 minutes after addition of ATP (vs. Medium control) (hCD39): 0.38

+A*+G*+T*A*A*T*C*C*A*C*C*C*A*+T*+A*+G (antisense AGTAATCCACCCATAG; sugars from the 5' end l3 d10 l3, all phosphorothioate, methylation of C not given here) [A04011MR]
Relative mCD39 mRNA expression (compared to non-treated cells) (mCD39 mRNA [1]): 0.01 | mCD39 protein expression on tumor associated macrophages (TAMs) (mCD39 protein): dose-dependently suppressed | mCD39 protein expression on tumor-infiltrating regulatory T cells (Tregs) (mCD39 protein): dose-dependently suppressed | mCD39 mRNA levels in spleens (mCD39 mRNA [2]; 10 mg/kg subcutaneous): significantly reduced | mCD39 mRNA levels in spleens (mCD39 mRNA [2]; 25 mg/kg subcutaneous): significantly reduced

+T*+C*+T*A*T*C*G*T*G*A*T*G*T*T*+T*+C*+T (antisense TCTATCGTGATGTTTCT; sugars from the 5' end l3 d11 l3, all phosphorothioate, methylation of C not given here) [S6]
absolute cell numbers of CD8+ T cells (human CD8+ T cells; [5]): no differences | proliferation of CD8+ T cells (human CD8+ T cells; [5]): no differences | absolute numbers of CD8+ T cells (human CD8+ T cells; [6]): significantly diminished | proliferation of CD8+ T cells (human CD8+ T cells; [6]): reduced proliferation | hCD39 protein expression (MFI) after oligonucleotide removal (hCD39 protein): no inhibitory effect | Residual hCD39 mRNA expression relative to untreated cells (set as 1) (hCD39 mRNA [3]): 0.95 | Residual hCD39 mRNA expression relative to untreated cells (set as 1) (hCD39 mRNA [4]): 0.95
